Tests used:
Experiment in all cases: normalised response (% of control), CellTiter-Glo; higher = more viable cells (100 = DMSO, 0 = benzethonium chloride kill control)
Details in all cases: incubation time: 72 h
SK-BR-3 = test system: SK-BR-3
How it was run: (§1)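 Breast cancer cell lines were exposed for 72 h in 384-well plates to compound at 5 concentrations, 10-fold apart, covering a 10,000-fold range fixed for each compound. Plates were read for CellTox Green fluorescence and CellTiter-Glo luminescence and normalised to 0.1 % DMSO (100) and a positive kill control (0). Each value is the normalised signal at one concentration of the series.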

CAL-120 = test system: CAL-120
How it was run: as §1

BT-474 = test system: BT-474
How it was run: as §1

HCC1937 = test system: HCC1937
How it was run: as §1

CAL-51 = test system: CAL-51
How it was run: as §1

MDA-MB-231 = test system: MDA-MB-231
How it was run: as §1

MDA-MB-436 = test system: MDA-MB-436
How it was run: as §1

MCF-10A = test system: MCF-10A
How it was run: as §1

CAL-148 = test system: CAL-148
How it was run: as §1

HCC1143 = test system: HCC1143
How it was run: as §1

HDQ-P1 = test system: HDQ-P1
How it was run: as §1

MFM-223 = test system: MFM-223
How it was run: as §1

DU-4475 = test system: DU-4475
How it was run: as §1

CAL-85-1 = test system: CAL-85-1
How it was run: as §1

BT-549 = test system: BT-549
How it was run: as §1

MDA-MB-453 = test system: MDA-MB-453
How it was run: as §1

HCC1599 = test system: HCC1599
How it was run: as §1

Hs578T = test system: Hs578T
How it was run: as §1

MDA-MB-468 = test system: MDA-MB-468
How it was run: as §1

SMILES | normalised response (SK-BR-3) [%] | normalised response (CAL-120) [%] | normalised response (BT-474) [%] | normalised response (HCC1937) [%] | normalised response (CAL-51) [%] | normalised response (MDA-MB-231) [%] | normalised response (MDA-MB-436) [%] | normalised response (MCF-10A) [%] | normalised response (CAL-148) [%] | normalised response (HCC1143) [%] | normalised response (HDQ-P1) [%] | normalised response (MFM-223) [%] | normalised response (DU-4475) [%] | normalised response (CAL-85-1) [%] | normalised response (BT-549) [%] | normalised response (MDA-MB-453) [%] | normalised response (HCC1599) [%] | normalised response (Hs578T) [%] | normalised response (MDA-MB-468) [%]
CC(C)N(CCCNC(=O)Nc1ccc(C(C)(C)C)cc1)C[C@H]1O[C@@H](n2cc(Br)c3c(N)ncnc32)[C@H](O)[C@@H]1O [SGC0946] (1 nM) | 97.5 | 94.9 | 93.8 | 92.7 | 104 | 93.2 | 102 | 101 | 99.5 | 89.9 | 94.5 | 91.3 | 98.5 | 98.4 | 99.2 | 95.3 | 93.8 | 96 | 97.7
CC/C(=C(\c1ccc(O)cc1)c1ccc(OCCN(C)C)cc1)c1ccccc1 [4-hydroxytamoxifen] (10 nM) | 98.3 | 98.3 | 96.7 | 97 | 88.4 | 96.8 | 90 | 109 | 110 | 101 | 95.7 | 104 | 103 | 97 | 97.1 | 112 | 93.5 | 102 | 108
O=C(CCBr)N1CCN(C(=O)CCBr)CC1 [Pipobroman] (1 nM) | 115 | 99.4 | 96.6 | 104 | 106 | 97.8 | 91.7 | 103 | 111 | 99.4 | 104 | 99.1 | 106 | 103 | 105 | 98.1 | 105 | 102 | 105
O=C(NC[C@H](O)CO)c1ccncc1Nc1ccc(I)cc1F [Pimasertib] (1 nM) | 98.5 | 99.8 | 100 | 100 | 62.2 | 105 | 99.5 | 82.8 | 97.7 | 93.2 | 93.8 | 97.6 | 99.9 | 97.9 | 100 | 105 | 106 | 97.2 | 97.5
O=C(CCBr)N1CCN(C(=O)CCBr)CC1 [Pipobroman] (10 nM) | 107 | 99.5 | 102 | 104 | 89.7 | 98.2 | 98.8 | 109 | 105 | 100 | 105 | 101 | 106 | 102 | 101 | 104 | 117 | 101 | 108
O=C(Nc1c[nH]nc1-c1nc2ccc(CN3CCOCC3)cc2[nH]1)NC1CC1 [AT9283] (0.1 nM) | 90 | 45.5 | 102 | 99.9 | 81.9 | 104 | 97.5 | 97.5 | 99.5 | 97 | 96.8 | 100 | 101 | 95.8 | 89 | 98.4 | 109 | 97.5 | 97.2
CCCCC/C=C/C=C1/C(=O)C=C[C@@H]1C/C=C\CCCC(=O)O [15D-PGJ2] (0.08 nM) | 106 | 102 | 102 | 94.5 | 96.8 | 106 | 102 | 103 | 108 | 102 | 104 | 103 | 96.6 | 95.3 | 98.4 | 111 | 101 | 99.6 | 95.8
Cc1c(Cn2c(C)nc3c(C(=O)O)cc(N4CCOCC4)cc32)cccc1C(F)(F)F (1 nM) | 106 | 101 | 95.9 | 96 | 104 | 107 | 95.8 | 113 | 101 | 108 | 103 | 104 | 99.1 | 96.9 | 99.8 | 100 | 73.8 | 98.5 | 97.5
CS(=O)(=O)N1CCN(Cc2cc3nc(-c4cccc5[nH]ncc45)nc(N4CCOCC4)c3s2)CC1 [Pictilisib] (10 nM) | 105 | 91.4 | 98.3 | 99.7 | 110 | 94.2 | 98.9 | 102 | 105 | 99.8 | 95.3 | 96.7 | 102 | 103 | 95.7 | 101 | 102 | 96.3 | 101
O=C1c2c(O)ccc(O)c2C(=O)c2c(NCCNCCO)ccc(NCCNCCO)c21 [Mitoxantrone] (1 nM) | 100 | 96.9 | 94.5 | 98.7 | 73.6 | 100 | 98.8 | 97.8 | 101 | 98.3 | 96.2 | 106 | 99.1 | 100 | 91.3 | 103 | 96.7 | 102 | 100
COc1nc(N)nc2c1ncn2[C@@H]1O[C@H](CO)[C@@H](O)[C@@H]1O [Nelarabine] (10 nM) | 70.6 | 90.8 | 87.5 | 102 | 77.6 | 97.4 | 97.7 | 88.7 | 81.3 | 96.2 | 89.9 | 88 | 98 | 96.4 | 99.5 | 88.1 | 88.6 | 96.5 | 90.5
COc1ccc(-c2cc3c(C)nc(N)nc3n([C@H]3CC[C@H](OCCO)CC3)c2=O)cn1 (10 nM) | 67.2 | 92.3 | 88.8 | 86.2 | 82.8 | 90.7 | 85.4 | 79.8 | 87.8 | 96.5 | 87.2 | 88.9 | 93.2 | 90.8 | 89.6 | 83.5 | 89.3 | 94.8 | 82.6
CC(=O)OC[C@H]1O[C@@H]([S-])[C@H](OC(C)=O)[C@@H](OC(C)=O)[C@@H]1OC(C)=O.CCP(CC)CC.[Au+] [Auranofin] (2.5 nM) | 104 | 92.5 | 99.4 | 94.5 | 111 | 108 | 103 | 107 | 106 | 97.8 | 91.3 | 104 | 105 | 95.4 | 95.8 | 99.8 | 87.5 | 103 | 99.2
COc1cc(CCc2cc(NC(=O)c3ccc(N4CC(C)NC(C)C4)cc3)n[nH]2)cc(OC)c1 (stereo not given) [AZD4547] (1 nM) | 106 | 101 | 103 | 98.4 | 102 | 96 | 97.2 | 96.7 | 85 | 97 | 98.3 | 91.9 | 94.6 | 96.9 | 94.8 | 91.9 | 104 | 98.6 | 97.8
Cc1c(CN2CCN(C(=O)[C@H](C)O)CC2)sc2c(N3CCOCC3)nc(-c3cnc(N)nc3)nc12 [GDC-0980] (10 nM) | 108 | 97.4 | 106 | 107 | 90.2 | 107 | 104 | 109 | 117 | 106 | 94.4 | 106 | 101 | 96.9 | 101 | 97.5 | 105 | 98.3 | 113
CCC/C=C/C=C/C(=O)O[C@H]1/C(=C/C(=O)OC)C[C@H]2C[C@H]([C@@H](C)O)OC(=O)C[C@H](O)C[C@@H]3C[C@H](OC(C)=O)C(C)(C)[C@](O)(C[C@@H]4C/C(=C/C(=O)OC)C[C@H](/C=C/C(C)(C)[C@]1(O)O2)O4)O3 [Bryostatin 1] (0.01 nM) | 103 | 96.1 | 106 | 98.6 | 92.1 | 105 | 101 | 108 | 101 | 97.7 | 97.8 | 105 | 107 | 101 | 99.1 | 109 | 118 | 100 | 104
Cc1ccc(Nc2nccc(N(C)c3ccc4c(C)n(C)nc4c3)n2)cc1S(N)(=O)=O [Pazopanib] (1 nM) | 109 | 95.4 | 98.1 | 96.2 | 98.5 | 96.8 | 97.3 | 94.8 | 108 | 97.4 | 101 | 99.3 | 109 | 110 | 104 | 125 | 100 | 99.8 | 106
Cc1cccc(-c2nn3c(c2-c2ccnc4ccc(C(N)=O)cc24)CCC3)n1 [Galunisertib] (0.1 nM) | 109 | 104 | 108 | 104 | 76.9 | 100 | 104 | 109 | 112 | 110 | 104 | 108 | 105 | 98.1 | 95.7 | 107 | 107 | 110 | 116
CC[C@@]1(O)C(=O)OCc2c1cc1n(c2=O)Cc2cc3c(CN(C)C)c(O)ccc3nc2-1 [Topotecan] (1 nM) | 99.2 | 92.5 | 93.2 | 97 | 68.1 | 97.9 | 99.3 | 97.3 | 97.6 | 92.8 | 99.7 | 93.7 | 95.3 | 95.6 | 97.3 | 103 | 95 | 105 | 94.7
CC/C(=C(\c1ccc(O)cc1)c1ccc(OCCN(C)C)cc1)c1ccccc1 [4-hydroxytamoxifen] (1 nM) | 107 | 98.6 | 101 | 99.6 | 91.2 | 96.6 | 103 | 101 | 102 | 95 | 97.7 | 101 | 99.4 | 100 | 107 | 107 | 96 | 108 | 98.8

Reference: the supplement of paper PMC4862054
